# Biological target: T1, full length SGK1 (Homo sapiens, UniProt O00141)
# T1 construct: 125 μM full length SGK1 (Life Technologies Part #PR7358A); purchased Life Technologies PR7358A
# T1 sequence (O00141 1-431): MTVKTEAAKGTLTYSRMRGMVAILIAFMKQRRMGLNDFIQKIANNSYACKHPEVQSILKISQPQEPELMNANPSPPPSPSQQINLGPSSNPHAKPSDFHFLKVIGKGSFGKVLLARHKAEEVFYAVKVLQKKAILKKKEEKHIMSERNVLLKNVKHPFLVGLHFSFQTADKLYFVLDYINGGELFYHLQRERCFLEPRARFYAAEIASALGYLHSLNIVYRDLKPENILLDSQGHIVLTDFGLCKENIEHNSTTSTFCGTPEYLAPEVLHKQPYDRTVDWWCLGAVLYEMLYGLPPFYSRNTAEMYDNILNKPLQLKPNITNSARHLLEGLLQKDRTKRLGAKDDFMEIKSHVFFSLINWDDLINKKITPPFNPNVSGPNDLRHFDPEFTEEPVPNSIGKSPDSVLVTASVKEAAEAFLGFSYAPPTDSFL
# Assay: SGK1 inhibition Assay A (Caliper LabChip electrophoretic separation of fluorescent peptide substrate and phosphorylated product)
# Format: biochemical
# Settings: Assay A; 20 μM ATP, 40 min incubation; read-out: SGK1 IC50
row,SMILES,IC50
1,"N#Cc1ccc(-c2ccc(C(=O)N[C@@H]3CCCN(c4cc(-c5ccnc(C(F)F)c5)n5ncnc(N)c45)C3)s2)cc1 [Example 543, (R)-N-(1-(4-amino-7-(2-(difluoromethyl)pyridin-4-yl)pyrrolo[2,1-f][1,2,4]triazin-5-yl)piperidin-3-yl)-5-(4-cyanophenyl)thiophene-2-carboxamide]",7 nM
2,"N#Cc1cccc(-c2ccc(C(=O)N[C@@H]3CCCN(c4cc(-c5ccnc(C(F)F)c5)n5ncnc(N)c45)C3)s2)c1 [Example 544, (R)-N-(1-(4-amino-7-(2-(difluoromethyl)pyridin-4-yl)pyrrolo[2,1-f][1,2,4]triazin-5-yl)piperidin-3-yl)-5-(3-cyanophenyl)thiophene-2-carboxamide]",5 nM
3,"CC(C)(C)OC(=O)N1CC=C(c2ccc(C(=O)N[C@@H]3CCCN(c4cc(-c5ccnc(C(F)F)c5)n5ncnc(N)c45)C3)s2)CC1 [Example 545, tert-butyl (R)-4-(5-((1-(4-amino-7-(2-(difluoromethyl)pyridin-4-yl)pyrrolo[2,1-f][1,2,4]triazin-5-yl)piperidin-3-yl)carbamoyl)thiophen-2-yl)-3,6-dihydropyridine-1(2H)-carboxylate]",22 nM
4,"CC(C)(C)OC(=O)N1CC=C(c2ccc(C(=O)N[C@@H]3CCCN(c4cc(-c5ccnc(C(F)F)c5)n5ncnc(N)c45)C3)s2)C1 [Example 546, tert-butyl (R)-3-(5-((1-(4-amino-7-(2-(difluoromethyl)pyridin-4-yl)pyrrolo[2,1-f][1,2,4]triazin-5-yl)piperidin-3-yl)carbamoyl)thiophen-2-yl)-2,5-dihydro-1H-pyrrole-1-carboxylate]",29 nM
5,"CC(=O)N1CC=C(c2cc(N3CCC[C@@H](NC(=O)c4ccc(-c5cncnc5)s4)C3)c3c(N)ncnn23)C1 [Example 548, (R)-N-(1-(7-(1-acetyl-2,5-dihydro-1H-pyrrol-3-yl)-4-aminopyrrolo[2,1-f][1,2,4]triazin-5-yl)piperidin-3-yl)-5-(pyrimidin-5-yl)thiophene-2-carboxamide]",90 nM
6,"CC(=O)N1CC=C(c2cc(N3CCC[C@@H](NC(=O)c4ccc(-c5cn[nH]c5)s4)C3)c3c(N)ncnn23)C1 [Example 550, (R)-N-(1-(7-(1-acetyl-2,5-dihydro-1H-pyrrol-3-yl)-4-aminopyrrolo[2,1-f][1,2,4]triazin-5-yl)piperidin-3-yl)-5-(1H-pyrazol-4-yl)thiophene-2-carboxamide]",8 nM
7,"CC(=O)N1CC=C(c2cc(N3CCC[C@@H](NC(=O)c4ccc(-c5cncc(C#N)c5)s4)C3)c3c(N)ncnn23)C1 [Example 551, (R)-N-(1-(7-(1-acetyl-2,5-dihydro-1H-pyrrol-3-yl)-4-aminopyrrolo[2,1-f][1,2,4]triazin-5-yl)piperidin-3-yl)-5-(5-cyanopyridin-3-yl)thiophene-2-carboxamide]",6 nM
8,"CC(=O)N1CC=C(c2cc(N3CCC[C@@H](NC(=O)c4ccc(-c5cnc(C#N)nc5)s4)C3)c3c(N)ncnn23)C1 [Example 552, (R)-N-(1-(7-(1-acetyl-2,5-dihydro-1H-pyrrol-3-yl)-4-aminopyrrolo[2,1-f][1,2,4]triazin-5-yl)piperidin-3-yl)-5-(2-cyanopyrimidin-5-yl)thiophene-2-carboxamide]",27 nM
9,"Nc1ncnn2c(-c3ccnc(C(F)F)c3)cc(N3CCC[C@@H](NC(=O)c4ccc(C5=CCNCC5)s4)C3)c12 [Example 553, (R)-N-(1-(4-amino-7-(2-(difluoromethyl)pyridin-4-yl)pyrrolo[2,1-f][1,2,4]triazin-5-yl)piperidin-3-yl)-5-(1,2,3,6-tetrahydropyridin-4-yl)thiophene-2-carboxamide]",16 nM
10,"CC(=O)N1CC=C(c2cc(N3CCC[C@@H](NC(=O)c4sc(-c5ccnc(C(F)F)c5)cc4OCCN(C)C)C3)c3c(N)ncnn23)C1 [Example 555, (R)-N-(1-(7-(1-acetyl-2,5-dihydro-1H-pyrrol-3-yl)-4-aminopyrrolo[2,1-f][1,2,4]triazin-5-yl)piperidin-3-yl)-5-(2-(difluoromethyl)pyridin-4-yl)-3-(2-(dimethylamino)ethoxy)thiophene-2-carboxamide]",7 nM
11,"CC(=O)N1CC=C(c2cc(N3CCC[C@@H](NC(=O)c4sc(-c5ccnc(F)c5)cc4OCCN(C)C)C3)c3c(N)ncnn23)C1 [Example 556, (R)-N-(1-(7-(1-acetyl-2,5-dihydro-1H-pyrrol-3-yl)-4-aminopyrrolo[2,1-f][1,2,4]triazin-5-yl)piperidin-3-yl)-3-(2-(dimethylamino)ethoxy)-5-(2-fluoropyridin-4-yl)thiophene-2-carboxamide]",6 nM
12,COC(=O)N1CC=C(c2cc(N3CCC[C@@H](NC(=O)c4sc(Cl)cc4OC4CCNCC4)C3)c3c(N)ncnn23)C1 [Example 561],2 nM
13,"COC(=O)N1CC=C(c2cc(N3CCC[C@@H](NC(=O)c4sc(Cl)cc4OC4CCN(C)CC4)C3)c3c(N)ncnn23)C1 [Example 562, methyl (R)-3-(4-amino-5-(3-(5-chloro-3-((1-methylpiperidin-4-yl)oxy)thiophene-2-carboxamido)piperidin-1-yl)pyrrolo[2,1-f][1,2,4]triazin-7-yl)-2,5-dihydro-1H-pyrrole-1-carboxylate]",2 nM
14,"COC(=O)N1CC=C(c2cc(N3CCC[C@@H](NC(=O)c4sc(Cl)cc4OC4CCN(C(C)C)CC4)C3)c3c(N)ncnn23)C1 [Example 563, methyl (R)-3-(4-amino-5-(3-(5-chloro-3-((1-isopropylpiperidin-4-yl)oxy)thiophene-2-carboxamido)piperidin-1-yl)pyrrolo[2,1-f][1,2,4]triazin-7-yl)-2,5-dihydro-1H-pyrrole-1-carboxylate]",3 nM
15,"COC(=O)N1CC=C(c2cc(N3CCC[C@@H](NC(=O)c4sc(Cl)cc4OC4CCN(CCO)CC4)C3)c3c(N)ncnn23)C1 [Example 564, methyl (R)-3-(4-amino-5-(3-(5-chloro-3-((1-(2-hydroxyethyl)piperidin-4-yl)oxy)thiophene-2-carboxamido)piperidin-1-yl)pyrrolo[2,1-f][1,2,4]triazin-7-yl)-2,5-dihydro-1H-pyrrole-1-carboxylate]",2 nM
16,"COC(=O)N1CC=C(c2cc(N3CCC[C@@H](NC(=O)c4sc(Cl)cc4OC4CCN(C(C)=O)CC4)C3)c3c(N)ncnn23)C1 [Example 565, methyl (R)-3-(5-(3-(3-((1-acetylpiperidin-4-yl)oxy)-5-chlorothiophene-2-carboxamido)piperidin-1-yl)-4-aminopyrrolo[2,1-f][1,2,4]triazin-7-yl)-2,5-dihydro-1H-pyrrole-1-carboxylate]",3 nM
17,"COC(=O)N1CC=C(c2cc(N3CCC[C@@H](NC(=O)c4sc(Cl)cc4OC4CCN(CC(F)F)CC4)C3)c3c(N)ncnn23)C1 [Example 566, methyl (R)-3-(4-amino-5-(3-(5-chloro-3-((1-(2,2-difluoroethyl)piperidin-4-yl)oxy)thiophene-2-carboxamido)piperidin-1-yl)pyrrolo[2,1-f][1,2,4]triazin-7-yl)-2,5-dihydro-1H-pyrrole-1-carboxylate]",12 nM
18,"COC(=O)N1CC=C(c2cc(N3CCC[C@@H](NC(=O)c4sc(Cl)cc4OC4COC4)C3)c3c(N)ncnn23)C1 [Example 567, Methyl (R)-3-(4-amino-5-(3-(5-chloro-3-(oxetan-3-yloxy)thiophene-2-carboxamido)piperidin-1-yl)pyrrolo[2,1-f][1,2,4]triazin-7-yl)-2,5-dihydro-1H-pyrrole-1-carboxylate]",4 nM
19,"COC(=O)N1CC=C(c2cc(N3CCC[C@@H](NC(=O)c4sc(Cl)cc4OC4CNC4)C3)c3c(N)ncnn23)C1 [Example 568, Methyl (R)-3-(4-amino-5-(3-(3-(azetidin-3-yloxy)-5-chlorothiophene-2-carboxamido)piperidin-1-yl)pyrrolo[2,1-f][1,2,4]triazin-7-yl)-2,5-dihydro-1H-pyrrole-1-carboxylate]",5 nM
20,"COC(=O)N1CC=C(c2cc(N3CCC[C@@H](NC(=O)c4sc(Cl)cc4OC4CCNC4)C3)c3c(N)ncnn23)C1 (stereo partly drawn) [Example 569, Methyl 3-(4-amino-5-((3R)-3-(5-chloro-3-(pyrrolidin-3-yloxy)thiophene-2-carboxamido)piperidin-1-yl)pyrrolo[2,1-f][1,2,4]triazin-7-yl)-2,5-dihydro-1H-pyrrole-1-carboxylate]",3 nM
21,"COC(=O)N1CC=C(c2cc(N3CCC[C@@H](NC(=O)c4sc(Cl)cc4OC4CCNC4)C3)c3c(N)ncnn23)C1 (stereo partly drawn) [Example 570, Methyl 3-(4-amino-5-((3R)-3-(5-chloro-3-(pyrrolidin-3-yloxy)thiophene-2-carboxamido)piperidin-1-yl)pyrrolo[2,1-f][1,2,4]triazin-7-yl)-2,5-dihydro-1H-pyrrole-1-carboxylate]",3 nM
22,"COC(=O)N1CC=C(c2cc(N3CCC[C@@H](NC(=O)c4sc(Cl)cc4OCC4CCNCC4)C3)c3c(N)ncnn23)C1 [Example 571, Methyl (R)-3-(4-amino-5-(3-(5-chloro-3-(piperidin-4-ylmethoxy)thiophene-2-carboxamido)piperidin-1-yl)pyrrolo[2,1-f][1,2,4]triazin-7-yl)-2,5-dihydro-1H-pyrrole-1-carboxylate]",8 nM
23,"COC(=O)N1CC=C(c2cc(N3CCC[C@@H](NC(=O)c4sc(Cl)cc4OC4CCN(C5COC5)CC4)C3)c3c(N)ncnn23)C1 [Example 572, Methyl (R)-3-(4-amino-5-(3-(5-chloro-3-((1-(oxetan-3-yl)piperidin-4-yl)oxy)thiophene-2-carboxamido)piperidin-1-yl)pyrrolo[2,1-f][1,2,4]triazin-7-yl)-2,5-dihydro-1H-pyrrole-1-carboxylate]",3 nM
